Data from publication PMC10794144, “A novel antibiotic class targeting the lipopolysaccharide transporter” (Nature, 2024).
pIC50: −log10 of the molar value. ≈ marks a conversion by molar mass, not a printed value. Like-named read-outs stand apart in the source and are kept apart here. Marks after values point to notes of the source that are not given here.

Columns and labels:
[1] = tested on: C. albicans ATCC 90028; experiment: microbe, parasite or virus in culture; conditions: Candida albicans
[2] = target: T1, Cannabinoid receptor CB1 (Homo sapiens, UniProt P21554); experiment: Off-target screening (CEREP); assay type: binding; conditions: read-out: percent inhibition
T1 construct: purchased Eurofins CEREP SA
T1 sequence (P21554 whole entry): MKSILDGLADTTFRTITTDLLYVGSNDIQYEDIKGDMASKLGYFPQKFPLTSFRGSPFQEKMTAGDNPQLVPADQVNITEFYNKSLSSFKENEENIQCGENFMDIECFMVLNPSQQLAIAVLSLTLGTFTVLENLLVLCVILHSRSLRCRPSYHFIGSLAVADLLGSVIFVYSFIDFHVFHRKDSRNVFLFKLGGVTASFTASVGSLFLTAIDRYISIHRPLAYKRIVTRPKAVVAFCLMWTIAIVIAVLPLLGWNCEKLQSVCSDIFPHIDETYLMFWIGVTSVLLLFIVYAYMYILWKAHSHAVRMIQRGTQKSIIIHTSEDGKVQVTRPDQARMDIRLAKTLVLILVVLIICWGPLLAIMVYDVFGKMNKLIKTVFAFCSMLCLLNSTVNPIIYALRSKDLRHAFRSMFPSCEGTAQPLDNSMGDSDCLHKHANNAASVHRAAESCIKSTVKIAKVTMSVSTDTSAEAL
Outline: (§1)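 Percent inhibition is reported, relative to radioligand signal in binding formats or to control enzymatic activity in enzyme formats. Each compound was tested once at 10 µM, in duplicate.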

[3] = target: T2, Androgen receptor (Homo sapiens, UniProt P10275); experiment: Off-target screening (CEREP); assay type: binding; conditions: read-out: percent inhibition
T2 construct: purchased Eurofins CEREP SA
T2 sequence (P10275 1-920): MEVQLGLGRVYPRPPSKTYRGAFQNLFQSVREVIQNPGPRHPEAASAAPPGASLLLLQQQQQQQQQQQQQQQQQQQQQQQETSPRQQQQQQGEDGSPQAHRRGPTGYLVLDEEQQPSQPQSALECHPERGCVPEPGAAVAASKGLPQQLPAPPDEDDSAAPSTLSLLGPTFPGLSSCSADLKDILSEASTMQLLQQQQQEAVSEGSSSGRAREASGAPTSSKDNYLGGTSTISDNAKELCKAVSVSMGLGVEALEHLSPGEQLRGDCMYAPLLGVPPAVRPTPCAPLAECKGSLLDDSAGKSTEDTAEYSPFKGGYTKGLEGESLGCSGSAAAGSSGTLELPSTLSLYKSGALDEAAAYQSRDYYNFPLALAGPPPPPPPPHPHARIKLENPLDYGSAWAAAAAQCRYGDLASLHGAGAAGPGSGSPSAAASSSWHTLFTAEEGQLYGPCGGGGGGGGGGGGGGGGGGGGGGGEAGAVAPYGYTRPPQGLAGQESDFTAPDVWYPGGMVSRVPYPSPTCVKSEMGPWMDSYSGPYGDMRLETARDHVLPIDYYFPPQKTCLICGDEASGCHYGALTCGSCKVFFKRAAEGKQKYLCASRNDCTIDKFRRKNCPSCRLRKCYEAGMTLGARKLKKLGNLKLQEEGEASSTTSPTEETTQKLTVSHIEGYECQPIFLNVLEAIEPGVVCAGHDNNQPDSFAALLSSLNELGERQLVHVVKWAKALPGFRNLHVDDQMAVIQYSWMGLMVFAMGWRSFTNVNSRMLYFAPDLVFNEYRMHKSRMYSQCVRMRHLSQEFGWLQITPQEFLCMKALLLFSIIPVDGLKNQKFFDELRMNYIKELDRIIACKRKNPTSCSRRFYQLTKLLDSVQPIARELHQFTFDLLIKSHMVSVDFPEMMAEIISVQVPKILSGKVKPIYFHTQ
Outline: as §1

[4] = target: T3, Dopamine D1 receptor (Homo sapiens, UniProt P21728); experiment: Off-target screening (CEREP); assay type: binding; conditions: read-out: percent inhibition
T3 construct: purchased Eurofins CEREP SA
T3 sequence (P21728 whole entry): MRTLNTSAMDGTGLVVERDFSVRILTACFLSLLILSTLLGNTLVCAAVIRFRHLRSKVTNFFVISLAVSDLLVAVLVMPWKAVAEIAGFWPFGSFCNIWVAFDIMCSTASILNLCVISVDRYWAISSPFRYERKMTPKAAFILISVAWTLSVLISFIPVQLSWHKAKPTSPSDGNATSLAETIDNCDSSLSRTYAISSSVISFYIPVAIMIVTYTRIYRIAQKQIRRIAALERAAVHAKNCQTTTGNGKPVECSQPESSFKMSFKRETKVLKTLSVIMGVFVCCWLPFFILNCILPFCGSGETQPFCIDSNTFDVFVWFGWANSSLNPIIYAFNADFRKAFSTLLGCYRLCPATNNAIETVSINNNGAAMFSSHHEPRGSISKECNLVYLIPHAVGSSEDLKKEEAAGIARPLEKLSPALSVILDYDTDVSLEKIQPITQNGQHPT
Outline: as §1

[5] = Micronucleus test (MNT)
[6] = target: hERG (Homo sapiens, UniProt Q12809); experiment: hERG
Chain of hERG (Q12809 whole entry): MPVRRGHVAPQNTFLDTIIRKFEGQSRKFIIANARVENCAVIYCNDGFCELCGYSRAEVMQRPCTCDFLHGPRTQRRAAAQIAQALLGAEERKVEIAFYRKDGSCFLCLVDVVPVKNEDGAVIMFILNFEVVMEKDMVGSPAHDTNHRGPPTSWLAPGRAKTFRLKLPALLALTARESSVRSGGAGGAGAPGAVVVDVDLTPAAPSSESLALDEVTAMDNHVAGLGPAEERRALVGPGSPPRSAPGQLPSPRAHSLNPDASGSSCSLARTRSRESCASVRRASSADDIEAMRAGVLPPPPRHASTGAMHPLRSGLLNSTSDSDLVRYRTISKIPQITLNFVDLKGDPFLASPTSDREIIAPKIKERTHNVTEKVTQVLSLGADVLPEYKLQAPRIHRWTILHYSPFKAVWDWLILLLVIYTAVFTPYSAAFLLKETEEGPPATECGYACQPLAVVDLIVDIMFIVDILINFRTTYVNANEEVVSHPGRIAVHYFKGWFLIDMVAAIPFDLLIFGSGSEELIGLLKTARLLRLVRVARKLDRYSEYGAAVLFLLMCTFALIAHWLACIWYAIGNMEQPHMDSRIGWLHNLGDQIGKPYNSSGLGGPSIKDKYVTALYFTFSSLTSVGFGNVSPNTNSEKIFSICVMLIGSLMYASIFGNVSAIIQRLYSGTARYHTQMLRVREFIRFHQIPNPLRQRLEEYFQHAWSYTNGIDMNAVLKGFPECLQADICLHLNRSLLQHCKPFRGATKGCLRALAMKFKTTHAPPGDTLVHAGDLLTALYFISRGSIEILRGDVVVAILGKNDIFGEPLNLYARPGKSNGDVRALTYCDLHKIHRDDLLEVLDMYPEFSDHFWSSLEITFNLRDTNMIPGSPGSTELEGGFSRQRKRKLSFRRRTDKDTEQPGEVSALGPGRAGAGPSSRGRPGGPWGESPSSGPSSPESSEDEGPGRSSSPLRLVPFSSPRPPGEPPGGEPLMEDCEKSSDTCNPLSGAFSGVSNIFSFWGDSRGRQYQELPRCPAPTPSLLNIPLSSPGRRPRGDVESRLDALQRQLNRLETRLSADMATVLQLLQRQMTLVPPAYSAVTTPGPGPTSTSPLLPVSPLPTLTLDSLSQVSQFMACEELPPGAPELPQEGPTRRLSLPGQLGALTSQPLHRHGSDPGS

[7] = Human whole blood haemolysis assay; conditions: human heparinated blood, 10 min 37 °C
Experimental: For the in vitro haemolysis test, blood was provided by Roche medical services through an anonymous blood donation for research program, approved by the Ethics Committee Northwestern Switzerland and Central Switzerland (EKNZ) and collected with informed consent. Blood was collected by venipuncture in ethylenediaminetetraacetic acid (EDTA) and Li-heparin-coated tubes. Plasma was prepared from anticoagulated blood by centrifugation (2,500g; 10 min; at room temperature) and the haematocrit was measured to ensure that it was within normal reference values. Each formulation of compound in saline was added at a concentration of 8 mg ml^−1 into test tubes containing exactly 0.5 ml of heparinated blood to give a final assay volume of 1 ml and a concentration of 4 mg ml^−1 or less (following further dilutions). After incubation in a water bath for 10 min at 37 °C, the tubes were centrifuged (10 min, 1,811g at room temperature) and 100 μl of the supernatant was subsequently transferred into test tubes containing 5 ml Drabkins solution (RANDOX Laboratories) and 1 ml phosphate buffer. Haemoglobin was photometrically determined at 540 nm according to the RANDOX test-kit instructions. The results were expressed as percentage haemolysis extrapolated from an internal standard curve with 0%, 50% and 100% haemolysed blood samples.

[8] = tested on: GSK-3A (second line so named); experiment: Off-target screening (CEREP); assay type: biochemical, human; conditions: 10 µM, duplicates
Experimental: Supplementary Table 1 │ Off-target activity screening f or MCP compou nds […]
The assays given in the table above were conducted at Eurofins CEREP S A (Celle-Lévescault, France) and were run as single point measurements in duplicates in the presence of 10 µ M of the test compound and reported as percent inhibition of the radioligand signal or control enzymatic activity. n.d., not

[9] = tested on: panel of 50 off-targets; experiment: Off-target activity screening, number of hits in panel of 50; assay type: binding; conditions: > 30% inhibition at 10 μM
[10] = Five-day repeat dose tolerability study; assay type: in vivo, rat; conditions: for Clinical observations: male Wistar rats, n = 4; for Clinical chemistry / Coagulation / Haematology: 5 days; for MTD: slow IV once daily for 5 days
Experimental: Assessment of tolerability was based on mortality, in-life observations, body weight, food consumption and clinical pathology during the in-life phase. Moreover, gross pathology and histopathology were performed at unscheduled or scheduled euthanasia on day 6.

[11] = 0.6 mg/kg slow IV once daily for 5 days
[12] = 6 mg/kg slow IV once daily for 5 days

Compound | MIC ([1]; ATCC90028) | inhibition at 10 µM ([2]; 10 µM, duplicates) | inhibition at 10 µM ([3]; 10 µM, duplicates) | inhibition at 10 µM ([4]; 10 µM, duplicates) | MNT [5] | pIC50 [6] | hERG IC20 [6] | percent inhibition [8] | inhibition at 10 µM [2] | inhibition at 10 µM [3] | inhibition at 10 µM [4] | Off-target hits [9] | Clinical observations [10, 11] | Clinical observations [10, 12] | Clinical chemistry ([10]; rats, 0.6 mg/kg IV) | Coagulation ([10]; rats, 0.6 mg/kg IV) | Haematology ([10]; rats, 0.6 mg/kg IV) | Clinical chemistry ([10]; rats, 6 mg/kg IV) | Coagulation ([10]; rats, 6 mg/kg IV) | Haematology ([10]; rats, 6 mg/kg IV) | also measured
CN1C(=O)[C@H](CCCN)NC(=O)[C@H](CCCN)NCc2ccccc2Sc2ccccc2CNC(=O)[C@@H]1Cc1c[nH]c2ccccc12 [RO7036668] | 64 µg/mL (≈ 97.6 µM) | -26% | 6% | 27% |  |  |  |  |  |  |  |  |  |  |  |  |  |  |  |  | 
CN1C(=O)[C@H](CCCCN)NC(=O)[C@H](CCCN)NCc2cccnc2Sc2c(Cl)ccc(Cl)c2CNC(=O)[C@@H]1Cc1c[nH]c2ccccc12 [RO7075573] | > 64 µg/mL |  |  |  | Negative | < 5.00 | 4 µM | 10% | -16% | -4% | 8% | 1 # | Slightly discolored tail after dosing | Slightly discolored tail after dosing, red extremities on D2 after dosing, prone posture, rolling gait, hypoactivity, laboured respiration, reduced food consumption – euthanized for humane reasons D2 | No relevant changes | No change | No change | Decreased HDL, triglyceride, cholesterol. Increased GLDH, AST and ALAT, CK, BUN, creatine, phosphorus, haptoglobin | Decreased prothrombin time and increased aPTT | Decrease in haemoglobin and haematocrit, increase in neutrophils | Haemolysis ([7]; 4 mg/mL, haemoglobin at 540 nm): 37%; Decrease in lipid parameters (cholesterol, triglycerides, HDL) ([10]; rats, after intravenous administration): > 40%; MTD ([10]; rats): 0.6 mg/kg
CN1C(=O)[C@H](CCCCN)NC(=O)[C@H](CCCN)NCc2cccnc2Sc2c(Cl)ccc(-c3ccc(C(=O)O)cc3)c2CNC(=O)[C@@H]1Cc1c[nH]c2ccccc12 [RO7202110] | > 64 µg/mL | -24% | 3% | -7% | Negative | < 4.70 | > 10 µM | -6% |  |  |  | 2 # |  |  |  |  |  |  |  |  | Haemolysis [7]: None
C[C@@H](O)[C@H]1C(=O)N2C(C(=O)O)=C(S[C@@H]3CN[C@H](C(=O)N(C)C)C3)[C@H](C)[C@H]12 [meropenem, reference compound] | > 64 µg/mL |  |  |  |  |  |  |  |  |  |  |  |  |  |  |  |  |  |  |  | MIC ([1]; ATCC90028, read-out: MIC 100%): > 64 µg/mL
CN1C(=O)[C@H](CCCCN)NC(=O)[C@H](CCCN)NCc2cccnc2Sc2cccc(-c3ccc(C(=O)O)cc3)c2CNC(=O)[C@@H]1Cc1c[nH]c2ccccc12 [zosurabalpin] | > 64 µg/mL |  |  |  | Negative | < 4.70 | > 10 µM | -3% | -20% | -5% | -3% | 0 # | Transiently discolored tail after dosing | Transiently discolored tail after dosing, body weight loss | No relevant changes | No change | No change | Minimally increased BUN, creatine. Minimally decreased phosphorus | No change | No change | Haemolysis [7]: None; MTD ([10]; rats): 6 mg/kg
